Earlier results in patent US6972278B2, “Laundry detergent gel with suspended particles” (Unilever Home & Personal Care USA division of Conopco, Inc., priority 2004, dated 2005).

Conditions: by fatty acid chain length; cited from Langmuir, Vol 16, pp 172-177, 2000

Row | SMILES | Measured pKa value
1 | CCCCCCCC(=O)O [Example 8] | 6.3~6.5
2 | CCCCCCCCCCCC(=O)O [Example 12] | ~7.5
3 | CCCCCCCCCCCCCC(=O)O [Example 14] | 8.1~8.2
4 | CCCCCCCCCCCCCCCC(=O)O [Example 16] | 8.6~8.8
5 | CCCCCCCCCC(=O)O [Example 10] | 7.1~7.3

Same assay, conditions: by fatty acid chain length; cited from Proc. R. Soc. London, A133, 140, 1931

Row | SMILES | Measured pKa value
6 | CCCCCCCCCCCCCCCC(=O)O [Example 16] | 8.5
